Data: US9895407B2, “Disinfecting formulations and uses thereof” (Sunny Wipes Pty Ltd, priority 2011, dated 2018)
Several values for one entry are separate records, joined by “and”; a condition that tells them apart may be missing. Identical values can stand only once.

How the values were obtained:
[1] = tested on: hand microflora; experiment: Surgical handrub test, EN 12791:2005; assay type: in vivo, human; conditions: 5 volunteers, 60 seconds exposure, right hand under sterile glove for 3 hours
Procedure: The protocol is based upon European standard EN 12791:2005 designed for testing “Chemical disinfectants and antiseptics—Surgical hand disinfectant”.
The clean and healthy hands (free of cuts and abrasions and with short, clean fingernails) of 5 volunteers were initially washed for 1 min with soap and water and dried with paper towel. To establish base line flora levels the fingertips and thumb were rubbed for 1 minute on the base of a petri dish containing 10 ml of Tryptone Soy Broth (TSB). A separate petri dish was used for each hand. Dilutions of 10^−2 and 10^−3 were prepared from the TSB that were assayed by the pour-plate method using Tryptone Soy Agar (TSA) plates.
Immediately after sampling for the baseline and without recontamination of the hands the subjects performed the handrub test. The subjects were split into two groups which were alternately treated with the standard formulation or the test formulation initially and then the other formulation, separately by a week to allow re-colonisation of native flora. […]
Log10, values for immediate effect and sustained effect were then determined and a Log Reduction Factor for both test formulation and standard formulation were calculated based on the average difference between the log10 pre-value and the log10 post-value in each subject.

[2] = tested on: Escherichia coli (NCTC 10538); experiment: Hygienic handwash/handrub test, EN 1500:1997, artificially contaminated hands; assay type: in vivo; conditions: N = 14 subjects
[3] = tested on: Escherichia coli (NCTC 10538); experiment: as above; assay type: in vivo; conditions: 60 second rub
From the text: The protocol is based upon European standard EN 1500:1997 designed for testing “Chemical disinfectants and antiseptics—Hygienic handwash”. The subjects (15 volunteers with clean and healthy hands that were free of cuts and abrasions and having short, clean fingernails) were split into two approximately equal groups which were alternately treated with the standard formulation or the test formulation initially and then the other formulation, separately by a one day. The hands of the subjects were initially washed for 1 min with soap and water and dried with paper towel. […] Excess fluid was allowed to drain back into the container. Hands were air dried for 3 minutes, holding them in a horizontal position. Each subject was encouraged to rotate their hands to avoid the formation of droplets. Each subject was treated from the same batch of contamination fluid. After drying, fingertips and thumb were rubbed for 1 minute on the base of a Petri-dish, which contained 10 mL of TSB. A separate Petri-dish for each hand (Left and Right) was used. This was the Pre-value. Dilutions of 10^−4 and 10^−5 were prepared using sterile Peptone Water (PEP). Each dilution was spread onto pre-poured, dried TSA plates. […] This procedure was completed with a 5 second rinse of fingers under running tap water. For the test formulation, 3 mL of test product was dispensed onto the subject's hands and rubbed over for 30 seconds using the standard procedure as instructed. This was done twice to give total of 6 mL test product over 60 second rub. The test product procedure was completed with a 5 seconds rinse of fingers under running tap water. […] Dilutions of 10^0, 10^−1 and 10^−2 were spread on pre-poured and dried TSA plates. All plates were incubated at 36° C.±2° C. for 24-48 hours. After the incubation period, all the plates were checked and colony forming units on both standard and test sample were counted. Dilutions with counts that are within 15-300 cfu were used in the computation. Plates showing less than 15 cfu or no growth were also counted. […] The test culture used in this study was obtained from the University of New South Wales Culture Collection—Escherichia coli (NCTC 10538) A neutralizer validated according to prEN 12054 were incorporated in the sampling fluids and diluents for the assessment of post-values in both test and reference procedure. […] The test organism was freshly revived from frozen protect beads by sub culturing in two McCartney bottles containing 5 mL of TSB. They were incubated at 37° C. These cultures are then inoculated into two bottles containing 1 L TSB. They were incubated at 37° C. for 18-24 hours The cultures were pooled into a sterile bottle to prepare the bacterial suspension. […] For testing this product, a cross-over design was used. […]

[4] = per subject and hand, duplicate plates, 2 x 3 mL

Row | SMILES | reduction of hand microflora, after 3 hours [1] [Logs] | Log Y, average of subjects [2] | Postvalues ([3]; per subject and hand (L/R), after 2 x 3 mL) | Number of cfu per plate, Postvalues, dilution 10^-0 [3, 4] | Number of cfu per plate, Postvalues, dilution 10^-1 [3, 4] | Number of cfu per plate, Postvalues, dilution 10^-2 [3, 4]
1 | CCCO [60% propan-1-ol, propan-1-ol] | 1.89 |  |  |  |  | 
2 | CC(C)O [60% propan-2-ol, propan-2-ol] |  | 1.97 | 625 and 5 (3×) and 0 (2×) and 235 (2×) and 455 and 52 and 127 and 240 and 1415 and 2050 and 5950 and 4 and 165 and 125 and 690 and 250 and 210 and 21 and 61 and 30 and 74 and 7 and 22 and 1530 | TNTC/TNTC (14×) and 42/41 and 0/0 (3×) and 5/4 and 58/46 and 134/120 and 4/3 and 5/5 and 246/275 and 232/182 and 19/22 and 54/69 and 86/62 and 3/10 and 21/22 | 108/94 and 9/3 and 177/129 and 62/63 and 1/0 and 5/3 and 0/0 (6×) and 20/27 and 50/41 and 2/0 and 26/22 and 141/142 and TNTC/TNTC (2×) and 0/5 and 18/15 and 9/16 and 17/30 and 62/76 and 26/24 and 19/23 and 8/8 and 1/5 and 1/11 and 1/2 | 5/16 and 0/3 and 11/19 and 2/4 and 0/0 (12×) and 0/1 (2×) and 2/1 and 3/9 and 7/3 and 11 cfu and 16/ cfu and 56/ cfu and 0/2 and 1/0 and 10/9 and 17 cfu and 1/2 and 3/5
